Converted amounts (≈) assume the structure as drawn. Like-named read-outs stand apart in the source and are kept apart here.
Experiments:
[1] = tested on: Staphylococcus haemolyticus; experiment: In vitro antibacterial activity of Example 5 (MIC); format: cell-based
Staphylococcus aureus [2] = experiment: Susceptibility testing (MIC) Assay 1, broth microdilution; format: cell-based; conditions: Staphylococcus aureus
Streptococcus pneumoniae = experiment: as above; format: cell-based
Streptococcus pyogenes = experiment: as above; format: cell-based; conditions: Streptococcus pyogenes, Streptococcus pyrgenes, in vivo strain; read-out: Spy MIC
Bacteroides fragilis = experiment: In vitro antibacterial activity of Example 5 against anaerobes (MIC, agar dilution); format: cell-based
B. cereus = experiment: microbe, parasite or virus in culture; format: cell-based; conditions: Bacillus cereus
Haemophilus influenzae = experiment: In vitro antibacterial activity of Example 5 (MIC); format: cell-based
Citrobacter koseri = experiment: In vitro antibacterial activity of Example 5 (MIC); format: cell-based
Propionibacterium acnes = experiment: In vitro antibacterial activity of Example 5 against anaerobes (MIC, agar dilution); format: cell-based; conditions: Cutibacterium acnes
Neisseria gonorrhoeae = experiment: MIC against 100 N. gonorrhoeae isolates, CLSI reference agar dilution; format: cell-based
Moraxella catarrhalis = experiment: In vitro antibacterial activity of Example 5 (MIC); format: cell-based; conditions: ATCC43617; Moraxella catarrhalis (ATCC 43617)
Enterococcus faecalis = experiment: In vitro antibacterial activity of Example 5 (MIC); format: cell-based
[3] = tested on: Staphylococcus epidermidis; experiment: In vitro antibacterial activity of Example 5 (MIC); format: cell-based
Staphylococcus aureus [4] = experiment: Modal MIC against S. aureus isolates of the thigh model; format: cell-based
Description: The S. aureus strains used included a methicillin-resistant isolate obtained from the American Type Culture Collection (ATCC33591) (MRSA). In addition, three S. aureus clinical isolates were utilized; (1) a methicillin sensitive isolate (MSSA); (2) a recent methicillin-resistant clinical isolate of the USA300 genotype (USA300) and (3) a recent methicillin-resistant clinical isolate of the USA100 genotype ([…]).
The MIC against each isolate was determined using the broth microdilution method following CLSI guidelines (Rayner et al. Clinical pharmacodynamics of linezolid in seriously ill patients treated in a compassionate use program. Clin Pharmacokinet 2003. 42:1411-23). Ten individual determinations were performed for each strain and the Modal MIC was used for all PK/PD calculations.

Clostridium difficile = experiment: In vitro antibacterial activity of Example 5 against anaerobes (MIC, agar dilution); format: cell-based; conditions: Clostridioides difficile
Enterococcus faecium = experiment: In vitro antibacterial activity of Example 5 (MIC); format: cell-based
[5] = tested on: 7 S. aureus strains and 1 strain of Streptococcus pyogenes; experiment: Minimum bactericidal concentration (MBC); format: cell-based, Staphylococcus aureus; Streptococcus pyogenes; conditions: 7 S. aureus strains and 1 S. pyogenes strain
Proteus vulgaris = experiment: In vitro antibacterial activity of Example 5 (MIC); format: cell-based
[6] = tested on: Streptococcus constellatus; experiment: In vitro antibacterial activity of Example 5 (MIC); format: cell-based
Finegoldia magna = experiment: In vitro antibacterial activity of Example 5 against anaerobes (MIC, agar dilution); format: cell-based; conditions: ATCC53516; Finegoldia magna (ATCC 53516)
[7] = azithromycin-intermediate isolates

C[C@@H]1CN2c3c(cc4c(N5C(=O)OC[C@@H]5C)noc4c3F)CC3(C(=O)NC(=O)NC3=O)[C@H]2[C@H](C)O1 [Example 5, (2R,4S,4aS)-11-Fluoro-2,4-dimethyl-8-[(4S)-4-methyl-2-oxo-1,3-oxazolidin-3-yl]-1,2,4,4a-tetrahydro-2′H,6H-spiro[1,4-oxazino[4,3-a][1,2]oxazolo[4,5-g]quinoline-5,5′-pyrimidine]-2′,4′,6′(1′H,3′H)-trione]
MIC [1]: 0.25 µg/mL (≈ 0.513 µM)
MIC90 ([1]; S. haemolyticus, n=21): 0.25 µg/mL (≈ 0.513 µM)
MIC (Staphylococcus aureus [2]; Staphylococcus aureus in vivo strain, MSQS, read-out: Sau(d) MIC): 0.36 µM (≈ 0.175 µg/mL)
MIC (Staphylococcus aureus [2]; in vivo strain, MRQR, read-out: Sau(e) MIC): 0.78 µM (≈ 0.38 µg/mL)
MIC (Staphylococcus aureus [2]; serum, read-out: Sau(f) MIC): 0.71 µM (≈ 0.346 µg/mL)
MIC (Streptococcus pneumoniae; in vivo strain (footnote b), read-out: Spn(b) MIC): 0.39 µM (≈ 0.19 µg/mL)
MIC (Streptococcus pneumoniae; in vivo strain (footnote c), read-out: Spn(c) MIC): 0.46 µM (≈ 0.224 µg/mL)
MIC (Streptococcus pyogenes): 0.36 µM (≈ 0.175 µg/mL)
MIC (Bacteroides fragilis; Bacteroides fragilis (isolates not further specified)): 8 µg/mL (≈ 16.4 µM)
MIC (Bacteroides fragilis; Bacteroides fragilis, ATCC25285, Bacteroides fragilis (ATCC 25285, CLSI QC Strain), read-out: MIC): 2 µg/mL (≈ 4.1 µM)
MIC (Bacteroides fragilis; Bacteroides fragilis, Bacteroides fragilis (isolates not further specified), read-out: MIC): 4 µg/mL (≈ 8.21 µM)
MIC90 (B. cereus): 0.5 µg/mL (≈ 1.03 µM)
MIC (Haemophilus influenzae; ATCC49619, Haemophilus influenzae (ATCC 49619 CLSI QC Strain)): 0.25 µg/mL (≈ 0.513 µM)
MIC90 (Haemophilus influenzae; Haemophilus influenzae, n=29): 1 µg/mL (≈ 2.05 µM)
MIC range (Haemophilus influenzae; Haemophilus influenzae, n=29): 0.125 to 1 µg/mL
MIC (Citrobacter koseri): 64 µg/mL (≈ 131 µM)
MIC (Propionibacterium acnes): 2 µg/mL (≈ 4.1 µM)
MIC (Neisseria gonorrhoeae; Neisseria gonorrhoeae, ATCC49226, QC strain N. gonorrhoeae ATCC 49226, read-out: MIC): 0.06 µg/mL (≈ 0.123 µM)
MIC (Neisseria gonorrhoeae; Neisseria gonorrhoeae, all 100 N. gonorrhoeae isolates tested, read-out: MIC values): ≤ 0.25 µg/mL
MIC90 (Neisseria gonorrhoeae; Neisseria gonorrhoeae, azithromycin-intermediate isolates, read-out: MIC90): 0.12 µg/mL (≈ 0.246 µM)
MIC (Neisseria gonorrhoeae; Neisseria gonorrhoeae, azithromycin-susceptible and -intermediate isolates, read-out: modal MIC): 0.06 µg/mL (≈ 0.123 µM)
MIC90 (Neisseria gonorrhoeae; Neisseria gonorrhoeae, azithromycin-susceptible isolates, read-out: MIC90): 0.06 µg/mL (≈ 0.123 µM)
MIC90 (Neisseria gonorrhoeae; Neisseria gonorrhoeae, ciprofloxacin-intermediate and -resistant strains, read-out: MIC90): 0.12 µg/mL (≈ 0.246 µM)
MIC (Neisseria gonorrhoeae; Neisseria gonorrhoeae, ciprofloxacin-intermediate and -resistant strains, read-out: modal MIC): 0.06 µg/mL (≈ 0.123 µM)
MIC90 (Neisseria gonorrhoeae; Neisseria gonorrhoeae, non-susceptible phenotypes, read-out: MIC90): 0.06 to 0.12 µg/mL (≈ 0.123 to 0.246 µM)
MIC (Neisseria gonorrhoeae; Neisseria gonorrhoeae, penicillin-intermediate and -resistant strains, read-out: modal MIC): 0.06 µg/mL (≈ 0.123 µM)
MIC90 (Neisseria gonorrhoeae; Neisseria gonorrhoeae, penicillin-intermediate strains, read-out: MIC90): 0.06 µg/mL (≈ 0.123 µM)
MIC90 (Neisseria gonorrhoeae; Neisseria gonorrhoeae, penicillin-resistant strains, read-out: MIC90): 0.12 µg/mL (≈ 0.246 µM)
MIC90 (Neisseria gonorrhoeae; Neisseria gonorrhoeae, susceptible phenotypes (ciprofloxacin-, tetracycline- and azithromycin-susceptible), read-out: MIC90): 0.06 µg/mL (≈ 0.123 µM)
MIC (Neisseria gonorrhoeae; Neisseria gonorrhoeae, tetracycline-intermediate and -resistant strains, read-out: modal MIC): 0.06 µg/mL (≈ 0.123 µM)
MIC90 (Neisseria gonorrhoeae; Neisseria gonorrhoeae, tetracycline-intermediate strains, read-out: MIC90): 0.06 µg/mL (≈ 0.123 µM)
MIC90 (Neisseria gonorrhoeae; Neisseria gonorrhoeae, tetracycline-resistant strains, read-out: MIC90): 0.12 µg/mL (≈ 0.246 µM)
MIC (Neisseria gonorrhoeae; Neisseria gonorrhoeae, various subsets of isolates including those non-susceptible to comparator agents, read-out: modal MIC): 0.06 µg/mL (≈ 0.123 µM)
MIC50 (Neisseria gonorrhoeae; Neisseria gonorrhoeae, all 100 N. gonorrhoeae isolates, read-out: MIC50): 0.06 µg/mL (≈ 0.123 µM)
MIC90 (Neisseria gonorrhoeae; Neisseria gonorrhoeae, all 100 N. gonorrhoeae isolates, read-out: MIC90): 0.125 µg/mL (≈ 0.256 µM)
MIC (Neisseria gonorrhoeae; QC strain N. gonorrhoeae ATCC 49226): 0.12 µg/mL (≈ 0.246 µM)
MIC90 (Neisseria gonorrhoeae; all 100 N. gonorrhoeae isolates): 0.12 µg/mL (≈ 0.246 µM)
MIC50 (Neisseria gonorrhoeae; [7]): 0.06 µg/mL (≈ 0.123 µM)
isolates at 0.06 μg/mL (Neisseria gonorrhoeae; [7]): 66.7%
MIC50 (Neisseria gonorrhoeae; azithromycin-susceptible isolates): 0.06 µg/mL (≈ 0.123 µM)
MIC50 (Neisseria gonorrhoeae; ciprofloxacin-intermediate and -resistant strains): 0.06 µg/mL (≈ 0.123 µM)
MIC50 (Neisseria gonorrhoeae; penicillin-intermediate strains): 0.06 µg/mL (≈ 0.123 µM)
MIC50 (Neisseria gonorrhoeae; penicillin-resistant strains): 0.06 µg/mL (≈ 0.123 µM)
isolates at ≦0.06 μg/mL (Neisseria gonorrhoeae; penicillin-resistant strains): 85.7%
MIC50 (Neisseria gonorrhoeae; tetracycline-intermediate strains): 0.06 µg/mL (≈ 0.123 µM)
MIC50 (Neisseria gonorrhoeae; tetracycline-resistant strains): 0.06 µg/mL (≈ 0.123 µM)
isolates at 0.06 μg/mL (Neisseria gonorrhoeae; tetracycline-resistant strains): 66.7%
MIC (Moraxella catarrhalis): 0.125 µg/mL (≈ 0.256 µM)
MIC range (Enterococcus faecalis; E. faecalis, n=51): 0.125 to 2 µg/mL
MIC (Enterococcus faecalis; Enterococcus faecalis): 2 µg/mL (≈ 4.1 µM)
MIC (Enterococcus faecalis; Enterococcus faecalis, ATCC29212, Enterococcus faecalis (ATCC 29212 CLSI QC Strain)): 1 µg/mL (≈ 2.05 µM)
MIC (Enterococcus faecalis; Enterococcus faecalis, Enterococcus faecalis (Vancomycin-R, fluoroquinolone-R)): 0.5 µg/mL (≈ 1.03 µM)
MIC90 (Enterococcus faecalis; Enterococcus faecalis, E. faecalis, n=51): 2 µg/mL (≈ 4.1 µM)
MIC ([3]; Staphylococcus epidermidis (MRSE)): 0.25 µg/mL (≈ 0.513 µM)
MIC90 ([3]; Staphylococcus epidermidis, S. epidermidis, n=37): 0.25 µg/mL (≈ 0.513 µM)
MIC (Staphylococcus aureus [4]; ATCC 33591 / MRSA, S. aureus MRSA (ATCC33591)): 0.125 µg/mL (≈ 0.256 µM)
MIC (Staphylococcus aureus [4]; S. aureus MSSA clinical isolate): 0.0625 µg/mL (≈ 0.128 µM)
MIC (Staphylococcus aureus [4]; S. aureus USA100 clinical isolate): 0.125 µg/mL (≈ 0.256 µM)
MIC (Staphylococcus aureus [4]; S. aureus USA300 clinical isolate): 0.25 µg/mL (≈ 0.513 µM)
MIC (Clostridium difficile; ATCC70057, Clostridium difficile (ATCC 70057, CLSI QC Strain)): 0.125 µg/mL (≈ 0.256 µM)
MIC (Clostridium difficile; Clostridium difficile): 0.125 µg/mL (≈ 0.256 µM)
MIC (Enterococcus faecium): 16 µg/mL (≈ 32.8 µM)
MIC90 (Enterococcus faecium; E. faecium): 16 µg/mL (≈ 32.8 µM)
MIC (Enterococcus faecium; Enterococcus faecium (Vancomycin-R, fluoroquinolone-R)): 8 µg/mL (≈ 16.4 µM)
minimum bactericidal concentrations (MBCs) relative to the MIC [5]: ≤ 2 fold
MIC (Proteus vulgaris): 32 µg/mL (≈ 65.6 µM)
MIC [6]: 0.03 µg/mL (≈ 0.0615 µM)
MIC (Finegoldia magna): < 0.03 µg/mL
